Test results from the CheMixHub viscosity set.
Values joined by “and” are separate entries in the source; they are usually repeats but may differ in a detail not shown here. Equal values may be shown once.

Assay: xn = mol fraction of the nth substance listed

CCCCCCCC/C=C\CCCCCCCC(=O)OCC(COC(=O)CCCCCCC/C=C\CCCCCCCC)OC(=O)CCCCCCC/C=C\CCCCCCCC + Cc1ccc(C)cc1
viscosity [mPa·s], 101.33 kPa
Details | 293.15 K | 298.15 K | 303.15 K | 308.15 K | 313.15 K
x1 = 0.000755 | 0.6573 | 0.6175 | 0.5813 | 0.5465 | 0.5168
x1 = 0.001496 | 0.6699 | 0.6292 | 0.5923 | 0.5567 | 0.5261
x1 = 0.004118 | 0.7209 | 0.6762 | 0.6359 | 0.5968 | 0.5636
x1 = 0.007318 | 0.7825 | 0.7329 | 0.6883 | 0.6454 | 0.609
x1 = 0.01139 | 0.8597 | 0.8042 | 0.7541 | 0.706 | 0.665
x1 = 0.01526 | 0.9594 | 0.8955 | 0.8379 | 0.7833 | 0.7368
x1 = 0.02469 | 1.185 | 1.101 | 1.027 | 0.9558 | 0.8959
x1 = 0.02908 | 1.291 | 1.197 | 1.115 | 1.037 | 0.9704
x1 = 0.03513 | 1.421 | 1.316 | 1.222 | 1.134 | 1.06
x1 = 0.04678 | 1.777 | 1.637 | 1.513 | 1.399 | 1.302
x1 = 0.06075 | 2.241 | 2.061 | 1.885 | 1.733 | 1.605

CC(=O)c1ccccc1 + Cc1ccccc1
viscosity, 101 kPa
Details | x2 = 0.1093 | x2 = 0.2145 | x2 = 0.3206 | x2 = 0.4281 | x2 = 0.5229 | x2 = 0.6213 | x2 = 0.7157 | x2 = 0.8392 | x2 = 0.9074
298.15 K | 1.561 mPa·s and 1.561 mPa·s | 1.446 mPa·s and 1.446 mPa·s | 1.329 mPa·s and 1.329 mPa·s | 1.211 mPa·s and 1.211 mPa·s | 1.105 mPa·s and 1.105 mPa·s | 0.9949 mPa·s and 0.9949 mPa·s | 0.8879 mPa·s and 0.8879 mPa·s | 0.7472 mPa·s and 0.7472 mPa·s | 0.6694 mPa·s and 0.6694 mPa·s
303.15 K | 1.426 mPa·s and 1.426 mPa·s | 1.323 mPa·s and 1.323 mPa·s | 1.218 mPa·s and 1.218 mPa·s | 1.112 mPa·s and 1.112 mPa·s | 1.018 mPa·s and 1.018 mPa·s | 0.9188 mPa·s and 0.9188 mPa·s | 0.8233 mPa·s and 0.8233 mPa·s | 0.6978 mPa·s and 0.6978 mPa·s | 0.6286 mPa·s and 0.6286 mPa·s
308.15 K | 1.31 mPa·s and 1.31 mPa·s | 1.217 mPa·s and 1.217 mPa·s | 1.123 mPa·s and 1.123 mPa·s | 1.027 mPa·s and 1.027 mPa·s | 0.9425 mPa·s and 0.9425 mPa·s | 0.8535 mPa·s and 0.8535 mPa·s | 0.7678 mPa·s and 0.7678 mPa·s | 0.6554 mPa·s and 0.6554 mPa·s | 0.5933 mPa·s and 0.5933 mPa·s

CCC(O)CC + Cc1ccccc1
viscosity [mPa·s], 101 kPa
Details | x1 = 0.1 | x1 = 0.1999 | x1 = 0.2999 | x1 = 0.4 | x1 = 0.4999 | x1 = 0.6 | x1 = 0.6999 | x1 = 0.8 | x1 = 0.9001
303.15 K | 0.5369 | 0.57 | 0.6172 | 0.6865 | 0.7794 | 0.9264 | 1.142 | 1.52 | 2.12
308.15 K | 0.5072 | 0.5352 | 0.5765 | 0.6364 | 0.7145 | 0.8369 | 1.015 | 1.313 | 1.767
313.15 K | 0.4793 | 0.5027 | 0.5395 | 0.5918 | 0.658 | 0.7604 | 0.9062 | 1.147 | 1.493
318.15 K | 0.4555 | 0.4739 | 0.5062 | 0.5515 | 0.6092 | 0.6951 | 0.8461 | 1.013 | 1.285
323.15 K | 0.433 | 0.4499 | 0.4765 | 0.5154 | 0.5649 | 0.6384 | 0.7404 | 0.9004 | 1.112

CCCCCCCC/C=C\CCCCCCCC(=O)OCC(COC(=O)CCCCCCC/C=C\CCCCCCCC)OC(=O)CCCCCCC/C=C\CCCCCCCC + Cc1ccccc1
viscosity [mPa·s], 101.33 kPa
Details | x1 = 0.000651 | x1 = 0.001141 | x1 = 0.003237 | x1 = 0.006694 | x1 = 0.009965 | x1 = 0.015 | x1 = 0.01736 | x1 = 0.02174 | x1 = 0.03032 | x1 = 0.04061
293.15 K | 0.6007 | 0.6111 | 0.6517 | 0.7201 | 0.7951 | 0.9362 | 0.971 | 1.073 | 1.306 | 1.616
298.15 K | 0.5652 | 0.5749 | 0.6124 | 0.6756 | 0.7447 | 0.8679 | 0.9064 | 0.9993 | 1.212 | 1.493
303.15 K | 0.5329 | 0.5419 | 0.5768 | 0.6355 | 0.6992 | 0.8126 | 0.8482 | 0.9337 | 1.129 | 1.385
308.15 K | 0.5016 | 0.5101 | 0.5425 | 0.5965 | 0.6557 | 0.7602 | 0.793 | 0.871 | 1.051 | 1.284
313.15 K | 0.4748 | 0.4827 | 0.513 | 0.5635 | 0.6185 | 0.7155 | 0.7459 | 0.8182 | 0.9851 | 1.198

O=S(Cl)Cl + Cc1ccccc1
298.15 K, 101 kPa
Details | viscosity [mPa·s]
x1 = 0.261 | 0.5832
x1 = 0.426 | 0.6019
x1 = 0.559 | 0.6139
x1 = 0.72 | 0.6223
x1 = 0.802 | 0.625
x1 = 0.923 | 0.6236

CC(=O)c1ccccc1 + ClC(Cl)Cl
298.15 K, 101 kPa
Details | viscosity [mPa·s]
x1 = 0.0992 | 0.655
x1 = 0.337 | 0.915
x1 = 0.501 | 1.107
x1 = 0.7125 | 1.352
x1 = 0.8875 | 1.53

CCCCCCCC/C=C\CCCCCCCC(=O)OCC(COC(=O)CCCCCCC/C=C\CCCCCCCC)OC(=O)CCCCCCC/C=C\CCCCCCCC + ClC(Cl)Cl
viscosity [mPa·s], 101.33 kPa
Details | x1 = 0.000728 | x1 = 0.000907 | x1 = 0.00244 | x1 = 0.004913 | x1 = 0.007824 | x1 = 0.01322 | x1 = 0.01672 | x1 = 0.03078
293.15 K | 0.5839 | 0.5875 | 0.6352 | 0.695 | 0.8133 | 1.032 | 1.109 | 1.733
298.15 K | 0.5545 | 0.5581 | 0.603 | 0.6576 | 0.7684 | 0.9701 | 1.042 | 1.585
303.15 K | 0.5275 | 0.5306 | 0.5725 | 0.6237 | 0.727 | 0.9137 | 0.9804 | 1.474

CC(=O)c1ccccc1 + ClCCCl
298.15 K, 101 kPa
Details | viscosity [mPa·s]
x2 = 0.1118 | 1.531
x2 = 0.3581 | 1.283
x2 = 0.6942 | 0.993

FCC(F)(F)F + FC(F)C(F)(F)F
viscosity [mPa·s], 101 kPa
Details | x1 = 0.25 | x1 = 0.5 | x1 = 0.746
298.15 K | 0.158 | 0.1739 | 0.1862
313.15 K | 0.1263 | 0.1395 | 0.151

FCC(F)(F)F + FCF
viscosity [mPa·s], 101 kPa
Details | x1 = 0.245 | x1 = 0.518 | x1 = 0.756
298.15 K | 0.1241 | 0.1379 | 0.1592
313.15 K | 0.1031 | 0.1152 | 0.129

CC(C)C[C@H](NC(=O)CN)C(=O)O + O
viscosity [mPa·s], 100 kPa
Details | x1 = 0.000362 | x1 = 0.000727 | x1 = 0.00109 | x1 = 0.00145 | x1 = 0.00179 | x1 = 0.002245 | x1 = 0.002699
293.15 K | 1.015 | 1.029 | 1.042 | 1.054 | 1.067 | 1.083 | 1.1
298.15 K | 0.9019 | 0.9133 | 0.9246 | 0.9358 | 0.9464 | 0.9607 | 0.9749
303.15 K | 0.8072 | 0.817 | 0.8268 | 0.8363 | 0.8455 | 0.8577 | 0.8698
308.15 K | 0.7277 | 0.7362 | 0.7447 | 0.753 | 0.761 | 0.7717 | 0.7823
313.15 K | 0.6605 | 0.668 | 0.6755 | 0.6828 | 0.6898 | 0.6992 | 0.7085

C[N+](C)(C)CCO.O=C([O-])CCCC[C@@H]1SC[C@@H]2NC(=O)N[C@@H]21 + O
viscosity [mPa·s], 100 kPa
Details | x1 = 0.0009415 | x1 = 0.001329 | x1 = 0.001899 | x1 = 0.002797 | x1 = 0.003833 | x1 = 0.005474
293.15 K | 1.044 | 1.058 | 1.079 | 1.111 | 1.146 | 1.2
298.15 K | 0.927 | 0.939 | 0.957 | 0.984 | 1.014 | 1.06
303.15 K | 0.829 | 0.84 | 0.855 | 0.879 | 0.905 | 0.944
308.15 K | 0.747 | 0.756 | 0.77 | 0.79 | 0.812 | 0.846
313.15 K | 0.678 | 0.686 | 0.698 | 0.716 | 0.735 | 0.765

NC(=O)c1ccccc1O + O
viscosity [mPa·s], 100 kPa
Details | x1 = 7.39e-05 | x1 = 0.000108 | x1 = 0.000143 | x1 = 0.00018 | x1 = 0.0002156 | x1 = 0.0002516
293.15 K | 1.008 | 1.011 | 1.013 | 1.015 | 1.016 | 1.017
298.15 K | 0.896 | 0.899 | 0.901 | 0.902 | 0.903 | 0.904
303.15 K | 0.803 | 0.805 | 0.807 | 0.808 | 0.81 | 0.811
308.15 K | 0.725 | 0.727 | 0.728 | 0.73 | 0.731 | 0.732
313.15 K | 0.659 | 0.661 | 0.662 | 0.663 | 0.664 | 0.665
